From ChEMBL document CHEMBL4840351 (J Med Chem, 2021)

What was measured:
[1] = molecular target: Epidermal growth factor receptor (Homo sapiens, UniProt P00533); assay: Inhibition of N-terminal DYKDDDD-tagged EGFR (669 to 1210 residues) (unknown origin) expressed in Sf21 insect cells using NH2-ETVYSEVRK-biotin as substrate preincubated for 1 hr followed by ATP addition and measured after 2 hrs by ELISA
[2] = molecular target: T1, Tyrosine-protein kinase Blk (Homo sapiens, UniProt P51451); assay: Inhibition of BLK (unknown origin) at 1 uM relative to control
Target sequence in this assay (P51451 2-505 limits assumed): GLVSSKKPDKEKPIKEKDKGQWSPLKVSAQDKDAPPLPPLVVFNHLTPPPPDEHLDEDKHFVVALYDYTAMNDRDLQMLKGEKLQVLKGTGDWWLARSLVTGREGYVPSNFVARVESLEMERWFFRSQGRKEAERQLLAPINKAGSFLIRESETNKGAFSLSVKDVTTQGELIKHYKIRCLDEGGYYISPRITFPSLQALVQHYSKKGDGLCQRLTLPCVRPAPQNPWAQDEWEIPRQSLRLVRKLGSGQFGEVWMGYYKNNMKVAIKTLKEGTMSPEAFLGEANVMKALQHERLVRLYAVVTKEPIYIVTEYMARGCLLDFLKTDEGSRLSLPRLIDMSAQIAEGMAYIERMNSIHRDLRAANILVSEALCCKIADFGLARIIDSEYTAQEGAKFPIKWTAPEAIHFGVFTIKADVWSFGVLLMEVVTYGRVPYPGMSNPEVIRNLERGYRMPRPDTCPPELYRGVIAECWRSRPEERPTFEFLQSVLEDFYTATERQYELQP

[3] = Cmax in CB-17 SCID mouse xenografted with human TMD8 cells at 7.5 mg/kg, po bid administered for 21 days; type: ADME, organism-based; design: route oral, dose 7.5 mg/kg, time 21 day; details: in vivo
[4] = tested on: TMD8; assay: Induction of cell cycle arrest in human TMD8 cells assessed as accumulation of cells at G1 phase at 300 nM incubated for 48 hrs by PI staining based flow cytometric analysis (reference value: 57.66 %); type: functional
[5] = Toxicity in CB-17 SCID mouse xenografted with human TMD8 cells assessed as change in body weight at 3.75 to 15 mg/kg, po bid administered for 21 days; type: organism-based; details: in vivo, 504 h, dose 3.75-15 mg/kg, time 21 day
[6] = tested on: TMD8; assay: Induction of cell cycle arrest in human TMD8 cells assessed as accumulation of cells at G1 phase at 30 nM incubated for 48 hrs by PI staining based flow cytometric analysis (reference value: 57.66 %); type: functional
[7] = Receptor occupancy at BTK in PBMC of ICR mouse at 15 mg/kg, po after 24 hrs by ELISA; type: functional
[8] = molecular target: Cytochrome P450 3A4 (Homo sapiens, UniProt P08684); assay: Inhibition of CYP3A4M in human liver microsomes using midazolam as substrate incubated for 10 mins in presence of NADPH by LC-MS/MS analysis; type: ADME
[9] = AUC in Sprague-Dawley rat at 5 mg/kg, po measured upto 24 hrs by LC/MS/MS analysis; type: ADME, organism-based; design: route oral, dose 5 mg/kg, time <=24; details: in vivo
[10] = tested on: TMD8; assay: Induction of cell cycle arrest in human TMD8 cells assessed as accumulation of cells at G1 phase at 3 nM incubated for 48 hrs by PI staining based flow cytometric analysis (reference value: 57.66 %); type: functional
[11] = tested on: Rec1; assay: Antiproliferative activity against human REC-1 cells assessed as reduction in cell viability incubated for 72 hrs by celltiter-glo assay; details: Rec1, 72 h
[12] = molecular target: T2, Tyrosine-protein kinase BTK (Homo sapiens, UniProt Q06187); assay: Inhibition of BTK in human TMD8 cells assessed as reduction in BTK autophosphorylation at Tyr 223 residue after 4 hrs by Western blot analysis; type: cell-based
[13] = Toxicity in SFP CD-1 mouse assessed as change in body weight at 10 to 1280 mg/kg, po administered for 7 days; type: organism-based; details: in vivo, 168 h, dose 10-1280 mg/kg, time 7 day
[14] = tested on: TMD8; assay: Induction of cell cycle arrest in human TMD8 cells assessed as accumulation of cells at S phase at 3 nM incubated for 48 hrs by PI staining based flow cytometric analysis (reference value: 37.42 %); type: functional
[15] = tested on: TMD8; assay: Antitumor activity against human TMD8 cells xenografted in CB-17 SCID nude mouse assessed as tumor growth inhibition at 15 mg/kg, po bid administered for 21 days; type: functional; details: 504 h, time 21 day, read-out: TGI
[16] = molecular target: Tyrosine-protein kinase Lck (Homo sapiens, UniProt P06239); assay: Inhibition of LCK (unknown origin)
[17] = Volume of distribution in Sprague-Dawley rat at 5 mg/kg, iv measured upto 24 hrs by LC/MS/MS analysis; type: ADME, organism-based; details: in vivo
[18] = tested on: TMD8; assay: Induction of cell cycle arrest in human TMD8 cells assessed as accumulation of cells at G2 phase at 300 nM incubated for 48 hrs by PI staining based flow cytometric analysis (reference value: 4.92 %); type: functional
[19] = Oral bioavailability in Sprague-Dawley rat at 5 mg/kg measured upto 24 hrs by LC/MS/MS analysis; type: ADME, organism-based; details: in vivo
[20] = Receptor occupancy at BTK in spleen of ICR mouse at 15 mg/kg, po after 1 hr by ELISA; type: functional
[21] = molecular target: Tyrosine-protein kinase Lyn (Homo sapiens, UniProt P07948); assay: Inhibition of LYN (unknown origin)
[22] = AUC in Sprague-Dawley rat at 5 mg/kg, iv measured upto 24 hrs by LC/MS/MS analysis; type: ADME, organism-based; design: route intravenous, dose 5 mg/kg, time <=24; details: in vivo
[23] = molecular target: T1, Tyrosine-protein kinase Blk; assay: Inhibition of BLK (unknown origin)
Target sequence in this assay (P51451 whole entry): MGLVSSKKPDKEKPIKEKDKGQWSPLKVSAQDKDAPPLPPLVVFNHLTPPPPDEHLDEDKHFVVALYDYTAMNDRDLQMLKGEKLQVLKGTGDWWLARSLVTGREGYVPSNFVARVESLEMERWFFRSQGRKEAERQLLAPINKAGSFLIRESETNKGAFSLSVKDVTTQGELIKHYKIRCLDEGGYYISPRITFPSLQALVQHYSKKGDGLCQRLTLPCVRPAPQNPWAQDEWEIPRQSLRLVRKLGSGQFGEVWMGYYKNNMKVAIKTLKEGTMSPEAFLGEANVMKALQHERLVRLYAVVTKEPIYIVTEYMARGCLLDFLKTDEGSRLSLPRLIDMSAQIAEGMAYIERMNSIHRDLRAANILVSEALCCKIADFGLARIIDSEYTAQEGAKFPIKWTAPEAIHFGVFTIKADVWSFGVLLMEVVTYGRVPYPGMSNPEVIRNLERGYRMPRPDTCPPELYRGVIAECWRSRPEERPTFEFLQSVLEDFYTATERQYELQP

[24] = molecular target: Tyrosine-protein kinase Tec (Homo sapiens, UniProt P42680); assay: Inhibition of TEC (unknown origin)
[25] = tested on: TMD8; assay: Induction of cell cycle arrest in human TMD8 cells assessed as accumulation of cells at G2 phase at 30 nM incubated for 48 hrs by PI staining based flow cytometric analysis (reference value: 4.92 %); type: functional
[26] = molecular target: Cytochrome P450 1A2 (Homo sapiens, UniProt P05177); assay: Inhibition of CYP1A2 in human liver microsomes using phenacetin as substrate incubated for 10 mins in presence of NADPH by LC-MS/MS analysis; type: ADME
[27] = Toxicity in SFP CD-1 mouse assessed as mortality at 10 to 1280 mg/kg, po administered for 7 days; type: organism-based; details: in vivo, 168 h, dose 10-1280 mg/kg, time 7 day
[28] = tested on: TMD8; assay: Induction of apoptosis in human TMD8 cells at 3000 nM incubated for 72 hrs by Annexin V-FITC/PI staining based flow cytometric analysis (reference value: 13.4 %); type: functional
[29] = Toxicity in SFP CD-1 mouse assessed as change in behavior at 10 to 1280 mg/kg, po administered for 7 days; type: organism-based; details: in vivo, 168 h, dose 10-1280 mg/kg, time 7 day
[30] = tested on: NAMALVA; assay: Antiproliferative activity against human NAMALWA cells assessed as reduction in cell viability incubated for 72 hrs by celltiter-glo assay
[31] = molecular target: Proto-oncogene tyrosine-protein kinase Src (Homo sapiens, UniProt P12931); assay: Inhibition of SRC (unknown origin)
[32] = tested on: TMD8; assay: Induction of cell cycle arrest in human TMD8 cells assessed as accumulation of cells at S phase at 30 nM incubated for 48 hrs by PI staining based flow cytometric analysis (reference value: 37.42 %); type: functional
[33] = Cmax in Sprague-Dawley rat at 5 mg/kg, po measured upto 24 hrs by LC/MS/MS analysis; type: ADME, organism-based; design: route oral, dose 5 mg/kg, time <=24; details: in vivo
[34] = Receptor occupancy at BTK in spleen of ICR mouse at 15 mg/kg, po after 24 hrs by ELISA; type: functional
[35] = molecular target: T2, Tyrosine-protein kinase BTK; assay: Inhibition of full-length N-terminal GST tagged BTK (2 to 659 residues) (unknown origin) expressed in Sf21 insect cells using NH2-ETVYSEVRK-biotin as substrate preincubated for 1 hr followed by ATP addition and measured after 2 hrs by ELISA
[36] = molecular target: Tyrosine-protein kinase BTK (Homo sapiens, UniProt Q06187, C481S); assay: Inhibition of BTK C481S mutant (unknown origin)
[37] = Clearance in Sprague-Dawley rat at 5 mg/kg, iv measured upto 24 hrs by LC/MS/MS analysis; type: ADME, organism-based; details: in vivo
[38] = tested on: Ramos; assay: Antiproliferative activity against human Ramos cells assessed as reduction in cell viability incubated for 72 hrs by celltiter-glo assay

T2 sequence (Q06187 whole entry): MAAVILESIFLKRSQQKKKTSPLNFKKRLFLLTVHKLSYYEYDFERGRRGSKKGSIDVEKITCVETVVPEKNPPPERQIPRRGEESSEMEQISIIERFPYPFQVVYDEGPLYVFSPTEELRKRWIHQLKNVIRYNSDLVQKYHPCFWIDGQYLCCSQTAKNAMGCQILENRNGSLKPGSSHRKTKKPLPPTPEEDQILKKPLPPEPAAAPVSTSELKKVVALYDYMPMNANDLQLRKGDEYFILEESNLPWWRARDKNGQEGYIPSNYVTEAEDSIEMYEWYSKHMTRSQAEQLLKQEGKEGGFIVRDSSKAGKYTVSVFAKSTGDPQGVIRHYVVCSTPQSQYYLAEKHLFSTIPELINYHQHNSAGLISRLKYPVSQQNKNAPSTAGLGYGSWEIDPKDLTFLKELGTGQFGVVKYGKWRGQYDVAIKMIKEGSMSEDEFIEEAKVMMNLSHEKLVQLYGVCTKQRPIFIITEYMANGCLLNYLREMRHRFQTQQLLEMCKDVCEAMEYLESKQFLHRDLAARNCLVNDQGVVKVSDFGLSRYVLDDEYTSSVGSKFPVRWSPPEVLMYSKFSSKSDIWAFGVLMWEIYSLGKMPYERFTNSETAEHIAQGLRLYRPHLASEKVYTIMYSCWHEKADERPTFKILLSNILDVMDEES
Chain of Epidermal growth factor receptor (P00533 whole entry, the tested form may be a part): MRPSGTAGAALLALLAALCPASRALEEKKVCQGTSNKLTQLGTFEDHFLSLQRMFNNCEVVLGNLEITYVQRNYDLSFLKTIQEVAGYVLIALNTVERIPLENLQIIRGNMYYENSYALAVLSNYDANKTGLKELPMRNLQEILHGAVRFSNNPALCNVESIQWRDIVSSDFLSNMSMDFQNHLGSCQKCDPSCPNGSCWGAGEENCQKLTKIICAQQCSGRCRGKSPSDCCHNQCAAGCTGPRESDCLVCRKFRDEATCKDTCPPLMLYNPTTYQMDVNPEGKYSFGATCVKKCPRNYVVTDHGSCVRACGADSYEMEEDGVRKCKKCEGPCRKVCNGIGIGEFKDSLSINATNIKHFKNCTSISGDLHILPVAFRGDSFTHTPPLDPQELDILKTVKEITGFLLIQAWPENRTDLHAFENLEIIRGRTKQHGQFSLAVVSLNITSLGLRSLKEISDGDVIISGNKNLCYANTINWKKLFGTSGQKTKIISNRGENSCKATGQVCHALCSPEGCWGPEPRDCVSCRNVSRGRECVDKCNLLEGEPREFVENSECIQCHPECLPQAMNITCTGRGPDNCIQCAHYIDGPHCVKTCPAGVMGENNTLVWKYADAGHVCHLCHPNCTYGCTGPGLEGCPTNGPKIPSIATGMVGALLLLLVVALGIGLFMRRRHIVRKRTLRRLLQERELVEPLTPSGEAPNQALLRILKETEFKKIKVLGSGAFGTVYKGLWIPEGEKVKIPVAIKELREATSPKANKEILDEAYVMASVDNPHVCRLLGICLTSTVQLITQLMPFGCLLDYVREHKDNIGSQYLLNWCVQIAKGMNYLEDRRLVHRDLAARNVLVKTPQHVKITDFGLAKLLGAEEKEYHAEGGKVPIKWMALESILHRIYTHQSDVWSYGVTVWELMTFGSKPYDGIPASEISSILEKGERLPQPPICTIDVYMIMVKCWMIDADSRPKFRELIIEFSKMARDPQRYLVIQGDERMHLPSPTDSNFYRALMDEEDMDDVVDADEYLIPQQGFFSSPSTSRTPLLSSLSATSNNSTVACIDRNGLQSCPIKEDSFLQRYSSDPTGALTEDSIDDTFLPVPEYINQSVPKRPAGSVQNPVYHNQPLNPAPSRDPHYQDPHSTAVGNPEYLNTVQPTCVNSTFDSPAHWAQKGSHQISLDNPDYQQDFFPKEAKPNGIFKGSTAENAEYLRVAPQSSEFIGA
Chain of Proto-oncogene tyrosine-protein kinase Src (P12931 2-536 limits assumed): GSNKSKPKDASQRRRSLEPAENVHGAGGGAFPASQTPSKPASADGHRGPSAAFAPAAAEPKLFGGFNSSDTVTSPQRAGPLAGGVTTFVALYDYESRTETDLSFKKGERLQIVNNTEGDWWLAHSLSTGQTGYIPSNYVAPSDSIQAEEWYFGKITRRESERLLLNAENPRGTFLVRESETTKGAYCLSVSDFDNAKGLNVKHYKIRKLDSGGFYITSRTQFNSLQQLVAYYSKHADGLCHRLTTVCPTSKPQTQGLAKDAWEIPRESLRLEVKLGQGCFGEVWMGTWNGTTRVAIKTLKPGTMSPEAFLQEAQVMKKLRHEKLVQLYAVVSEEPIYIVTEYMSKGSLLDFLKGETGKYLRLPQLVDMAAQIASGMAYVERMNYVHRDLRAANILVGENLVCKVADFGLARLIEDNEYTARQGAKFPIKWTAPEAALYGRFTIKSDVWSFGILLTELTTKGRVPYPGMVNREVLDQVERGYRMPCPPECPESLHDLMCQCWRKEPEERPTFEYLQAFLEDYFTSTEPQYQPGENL
Chain of Cytochrome P450 3A4 (P08684 whole entry): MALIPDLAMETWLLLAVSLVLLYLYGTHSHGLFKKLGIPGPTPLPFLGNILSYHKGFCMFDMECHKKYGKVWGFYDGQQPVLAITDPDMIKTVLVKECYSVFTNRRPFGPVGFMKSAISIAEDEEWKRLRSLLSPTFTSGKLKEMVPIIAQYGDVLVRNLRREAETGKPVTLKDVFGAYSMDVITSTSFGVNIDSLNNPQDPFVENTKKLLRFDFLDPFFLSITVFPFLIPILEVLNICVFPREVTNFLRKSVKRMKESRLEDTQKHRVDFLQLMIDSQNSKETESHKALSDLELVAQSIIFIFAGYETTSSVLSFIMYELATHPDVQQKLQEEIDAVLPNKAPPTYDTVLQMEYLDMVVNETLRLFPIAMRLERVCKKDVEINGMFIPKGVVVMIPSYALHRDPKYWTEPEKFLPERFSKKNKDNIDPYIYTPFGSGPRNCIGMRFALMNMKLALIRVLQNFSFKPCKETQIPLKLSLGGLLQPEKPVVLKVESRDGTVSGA
Chain of Tyrosine-protein kinase BTK (Homo sapiens, UniProt Q06187, C481S) (Q06187 2-659 C481S limits assumed): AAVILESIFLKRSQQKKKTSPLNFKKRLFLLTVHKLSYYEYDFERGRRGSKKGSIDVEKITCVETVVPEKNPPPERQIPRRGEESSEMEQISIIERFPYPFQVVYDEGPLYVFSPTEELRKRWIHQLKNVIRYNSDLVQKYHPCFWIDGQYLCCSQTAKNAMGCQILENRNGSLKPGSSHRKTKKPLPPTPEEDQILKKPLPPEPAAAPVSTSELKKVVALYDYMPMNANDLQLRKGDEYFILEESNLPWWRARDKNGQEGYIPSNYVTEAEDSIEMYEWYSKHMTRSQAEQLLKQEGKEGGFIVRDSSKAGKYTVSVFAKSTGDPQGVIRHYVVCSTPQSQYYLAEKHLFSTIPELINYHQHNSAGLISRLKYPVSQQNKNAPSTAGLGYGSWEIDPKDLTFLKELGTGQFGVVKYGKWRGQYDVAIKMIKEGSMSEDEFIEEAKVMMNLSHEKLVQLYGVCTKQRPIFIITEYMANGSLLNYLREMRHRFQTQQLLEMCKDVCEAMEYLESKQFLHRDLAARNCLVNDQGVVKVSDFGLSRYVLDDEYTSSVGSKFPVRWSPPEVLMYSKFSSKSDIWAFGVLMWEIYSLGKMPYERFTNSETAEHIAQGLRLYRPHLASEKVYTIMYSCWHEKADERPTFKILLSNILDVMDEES

Structure (SMILES): C=CC(=O)N1CCCC[C@H]1c1nc(-c2ccc(C(=O)Nc3cc(C(F)(F)F)ccn3)cc2)c(C(N)=O)n1N
- IC50 [1]: 0.433 µM
- inhibition [2]: > 80%
- Cmax [3]: 1000 ng/mL
- Activity [4]: 93.84%
- Activity [5]: Non-Toxic
- Activity [6]: 84.36%
- Occ [7]: 91%
- IC50 [8]: > 10 µM
- AUC at 24 h [9]: 2000 ng·h/mL
- Activity [10]: 54.21%
- IC50 [11]: 0.035 µM
- IC50 [12]: 0.00897 µM
- Activity [13]: Non-Toxic
- Activity [14]: 37.86%
- inhibition in vivo at 15 mg/kg [15]: 106%
- inhibition (INH) [16]: Not Active
- Vd [17]: 1.5 L/kg
- Activity [18]: 3.79%
- bioavailability [19]: 31.4%
- Occ [20]: 95%
- inhibition (INH) [21]: Not Active
- AUC at 24 h [22]: 6360 ng·h/mL
- IC50 [23]: 0.17 µM
- IC50 [24]: 0.0157 µM
- Activity [25]: 4.69%
- IC50 [26]: > 10 µM
- Activity [27]: Non-Toxic
- Activity [28]: 68.4%
- Activity [29]: Non-Toxic
- IC50 [30]: 4.1 µM
- inhibition (INH) [31]: Not Active
- Activity [32]: 10.95%
- Cmax [33]: 501 ng/mL
- Occ [34]: 58%
- IC50 [35]: 0.0027 µM
- IC50 [36]: > 10 µM
- clearance [37]: 13.4 mL/min/kg
- IC50 [38]: 2.5 µM
